Results: publication PMC5286520 (Scientific Reports, 2017)
Like-named read-outs stand apart in the source and are kept apart here. Bridge positions count the residues as written; N and C are the ends. Peptide text beside a SMILES is read from it.

Assays:
[1] = type: in vitro ADME, human; conditions: for half-life: human serum, 37 °C, 100 μM peptide, read-out: half-life t½ (converted); for degradation in human serum: within 24 h
Protocol: Serum stability was tested as described previously. Briefly, serum was obtained prepared from human blood (self-donor), allowed to coagulate for 2 h at 23 °C and centrifuged at 12,000 × g for 10 min. Peptides (100 μM) were incubated in serum for 2, 4, 6, 8, 10 and 24 h at 37 °C. To evaluate peptide stability, aliquots ([…]) were analysed via RP-HPLC (UltiMate 3000, Thermo Scientific Dionex, Vienna, Austria) on a C18 column (Phenomenex Kinetex, Aschaffenburg, Germany) with a 3% gradient using 0.1% (v/v) TFA and 90/10/0.1% (v/v/v) acetonitrile/H2O/TFA as eluents. Half-life (t1/2) of peptides was calculated using non-linear regression analysis using Graph Pad Prism.
Supplementary Fig. 5. Human serum stability of the inotocin D-analogue. [D-Arg 8 ]-inotocin […]
serum and their stability monitored via HPLC over a time course of 2, 4, 6, 8, 10 and 24 h. Melittin, a haemolytic peptide from the bee venom was used as a positive control f or peptide degradation.
Area under the curves of samples was determined and correlated to the negative control analyte, which was dissolved in 0.1% TFA; thus they were not subject to degradation and were assumed therefore as 100%. Peptide stability was expressed in percentage of peptide remaining.
(1 picture or pasted object on this page, not shown here)

[2] = test system: inotocin R (L. niger); experiment: IP1 accumulation, CHO cells expressing L. niger inotocin receptor; type: cell-based, Lasius niger; conditions: 10 µM peptide, L. niger INTR
Protocol: (§1) Chinese Hamster Ovary cells (CHO) were cultured in Ham’s F12 media supplemented with 10% fetal bovine serum (FBS), 1% PenStrep (all from Sigma-Aldrich, Munich, Germany) and grown in a humidified atmosphere of 37 °C, 5% CO2 and passaged on average twice per week. CHO cells were used for expression of inotocin receptor (L. niger, T. castaneum). Cell transfections were carried out with 10 μg of plasmid using Lipofectamine LTX (Life Technologies, Invitrogen, Carlsbad, USA) for invertebrate receptors. For the expression of human OTR, V1aR, V1bR and V2R, HEK293 cells were transfected using jetPRIME (Polyplus Transfections, Illkirch-Graffenstaden, France)[35]. Cells were maintained in DMEM (GE Healthcare Hy Clone™, Logan, USA) supplemented with 10% FBS and 1% PenStrep.
(§2) Activation of Gq-signalling via the human V1aR, V1bR and OTR, as well as the insect INTR was measured by inositol-1-phosphate (IP1) quantification using an IP1 Tb kit (Cisbio, Codolet, France). Transfected cells were seeded in 96 well-plates, with a cell density of 10^4 cells per well. […] Samples were measured in technical triplicates. […] Activation of Gs-signalling via the human V2R was measured using a luciferase reporter assay. […] For Schild regression analysis, each concentration-ratio (r) was calculated as the agonist EC50 in the presence of a respective concentration of [D-Arg8]-inotocin by the EC50 of the agonist alone.

[3] = test system: inotocin R (T. castaneum); experiment: IP1 accumulation, CHO cells expressing T. castaneum inotocin receptor; type: cell-based, Tribolium castaneum; conditions: 10 µM peptide, T. castaneum INTR
Protocol: as §1, §2

[4] = target: V1aR; set-up: method as in earlier work; conditions: previous studies, ref [32][43], cited from earlier work
[5] = target: T1, human V2R (Homo sapiens, UniProt P30518); experiment: Radioligand displacement of [3H] vasopressin, human V2R membranes; type: binding; conditions: Affinity (Ki), displacement of [3H] vasopressin; mean ± SEM
T1 construct: expressed in transfected cells; host or cells: HEK293 cells, transient (jetPRIME); for the reporter assay co-transfected with pGL4.29 [luc2P/CRE/Hygro]
Protocol: as §1
(§3) Unbound ligands were washed off (Skatron Cell Harvester). […] Bindings of [^3H] AVP and [^3H] […] Bindings of [^3H] inotocin to membranes (10 μg) expressing INTR from L. niger, or [^3H] inotocin to membranes (10 μg) expressing INTR from T. castaneum, respectively, were assayed for displacement with an excess of inotocin (10^−11 to 10^−5 M) (n ≥ 3, except where otherwise stated). […] Specific binding was calculated by subtracting the non-specific binding from the total binding. IC50 values were obtained by fitting the data to a three-parameter logistic Hill equation. Inhibition constants (Ki) were calculated from IC50 using the method by Cheng and Prusoff[65].

[6] = target: T2, human V1bR (Homo sapiens, UniProt P47901); experiment: Radioligand displacement of [3H] vasopressin, human V1bR membranes; type: binding; conditions: Affinity (Ki), displacement of [3H] vasopressin; mean ± SEM
T2 construct: expressed in transfected cells; host or cells: HEK293 cells, transient (jetPRIME)
T2 sequence (P47901 1-424): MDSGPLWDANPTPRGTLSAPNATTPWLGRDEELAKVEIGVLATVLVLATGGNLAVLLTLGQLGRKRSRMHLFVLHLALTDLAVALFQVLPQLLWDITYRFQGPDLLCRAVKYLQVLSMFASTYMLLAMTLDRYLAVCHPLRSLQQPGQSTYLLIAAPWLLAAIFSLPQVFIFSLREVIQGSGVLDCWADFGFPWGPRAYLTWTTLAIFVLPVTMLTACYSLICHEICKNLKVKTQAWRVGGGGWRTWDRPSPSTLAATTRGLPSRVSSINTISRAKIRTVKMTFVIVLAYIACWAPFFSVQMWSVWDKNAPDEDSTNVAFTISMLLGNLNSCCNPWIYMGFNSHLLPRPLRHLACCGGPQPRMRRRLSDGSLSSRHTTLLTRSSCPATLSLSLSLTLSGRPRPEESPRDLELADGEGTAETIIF
Description: Unbound ligands were washed off (Skatron Cell Harvester). […] For the displacement at the human OTR, V1aR, V1bR and V2R the normalization to 100% refers on average to 0.49, 1.4, 0.36, 1.1 pmoles of ligand bound per milligram of membrane for human OTR, V1aR, V1bR and V2R, respectively. […] For the displacement at the insect receptors the normalization to 100% refers on average to 0.65 and 0.69 pmoles of ligand bound per milligram of membrane for inotocin receptor from L. niger and T. castaneum, respectively. Bindings of [^3H] inotocin to membranes (10 μg) expressing INTR from L. niger, or [^3H] inotocin to membranes (10 μg) expressing INTR from T. castaneum, respectively, were assayed for displacement with an excess of inotocin (10^−11 to 10^−5 M) (n ≥ 3, except where otherwise stated). […] Specific binding was calculated by subtracting the non-specific binding from the total binding. IC50 values were obtained by fitting the data to a three-parameter logistic Hill equation. Inhibition constants (Ki) were calculated from IC50 using the method by Cheng and Prusoff[65].

[7] = target: T3, human OTR (Homo sapiens, UniProt P30559); experiment: IP1 accumulation, HEK293 cells expressing human OTR; type: cell-based
T3 construct: expressed in transfected cells; host or cells: HEK293 cells, transient (jetPRIME)
T3 sequence (P30559 1-389): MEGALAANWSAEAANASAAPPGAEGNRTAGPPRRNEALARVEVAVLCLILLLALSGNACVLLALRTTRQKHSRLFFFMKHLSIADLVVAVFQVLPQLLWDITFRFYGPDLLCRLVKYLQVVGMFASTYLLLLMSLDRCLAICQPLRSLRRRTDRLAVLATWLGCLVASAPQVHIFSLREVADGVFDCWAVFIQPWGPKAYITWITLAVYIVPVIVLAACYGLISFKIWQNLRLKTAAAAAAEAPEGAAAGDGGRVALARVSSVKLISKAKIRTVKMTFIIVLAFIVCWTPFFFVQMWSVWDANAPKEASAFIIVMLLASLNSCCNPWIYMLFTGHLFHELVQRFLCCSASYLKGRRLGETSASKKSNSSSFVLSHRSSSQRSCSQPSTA
Protocol: as §1
(§4) Activation of Gq-signalling via the human V1aR, V1bR and OTR, as well as the insect INTR was measured by inositol-1-phosphate (IP1) quantification using an IP1 Tb kit (Cisbio, Codolet, France). Transfected cells were seeded in 96 well-plates, with a cell density of 10^4 cells per well. Cell culture media was removed from the wells after 6 h and 70 μL of peptide of interest, prepared in IP1 1X Stimulation Buffer at the desired concentrations, was added. Samples were measured in technical triplicates. After 1 h incubation at 37 °C, 15 μL of IP1-d2 was added, following the same volume of Ab-cryptate. […] Activation of Gs-signalling via the human V2R was measured using a luciferase reporter assay. HEK293 transiently expressing V2R were co-transfected with the pGL4.29 [luc2P/CRE/Hygro] (Promega, Mannheim, Germany) plasmid. […] For cell-based functional assays (luciferase and IP1), subtraction of the negative control (stimulation buffer) was applied to all data set. The normalization was performed to the highest value of the positive control from at least 4 independent experiments. Data were fitted using GraphPad Prism 5.0 with an equation for non-linear regression (sigmoidal, slope fit of 1). Values are reported as mean ± SEM. For Schild regression analysis, each concentration-ratio (r) was calculated as the agonist EC50 in the presence of a respective concentration of [D-Arg8]-inotocin by the EC50 of the agonist alone.

[8] = target: T1, human V2R; experiment: cell-based; conditions: luciferase reporter, CRE response element; mean ± SEM; read-out: Potency (EC50)
Protocol: as §1, §4

[9] = target: T2, human V1bR; experiment: cell-based; conditions: IP1 accumulation; mean ± SEM; read-out: Potency (EC50)
Protocol: as §1, §4

[10] = target: T4, human V1aR (Homo sapiens, UniProt P37288); experiment: Radioligand displacement of [3H] vasopressin, human V1aR membranes; type: binding; set-up: expressed in transfected cells; host or cells: HEK293 cells, transient (jetPRIME); conditions: read-out: Affinity (Ki)
Protocol: as §1
as §3, with “IC50 values were obtained by fitting the data to a three-parameter logistic Hill equation.” left out

[11] = target: T3, human OTR; experiment: Radioligand displacement of [3H] oxytocin, human OTR membranes; type: binding; conditions: read-out: Affinity (Ki)
Protocol: as §1
as §3, with “IC50 values were obtained by fitting the data to a three-parameter logistic Hill equation.” left out

[12] = target: T4, human V1aR; experiment: IP1 accumulation, HEK293 cells expressing human V1aR; type: cell-based; set-up: expressed in transfected cells; host or cells: HEK293 cells, transient (jetPRIME)
Protocol: as §1, §4

[13] = IP1 accumulation, mean ± SEM, read-out: Potency (EC50)

T4 sequence (P37288 whole entry): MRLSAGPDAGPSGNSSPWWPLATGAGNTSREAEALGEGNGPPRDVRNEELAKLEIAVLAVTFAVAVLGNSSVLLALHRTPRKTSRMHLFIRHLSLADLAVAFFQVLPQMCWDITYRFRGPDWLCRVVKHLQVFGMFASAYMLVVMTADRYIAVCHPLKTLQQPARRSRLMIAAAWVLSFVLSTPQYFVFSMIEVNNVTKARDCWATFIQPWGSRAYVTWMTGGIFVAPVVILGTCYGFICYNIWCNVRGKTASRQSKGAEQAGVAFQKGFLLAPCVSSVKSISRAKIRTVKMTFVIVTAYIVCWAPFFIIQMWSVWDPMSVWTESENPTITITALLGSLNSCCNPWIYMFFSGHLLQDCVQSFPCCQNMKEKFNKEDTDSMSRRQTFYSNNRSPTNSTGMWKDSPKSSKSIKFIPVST
T1 sequence (P30518 whole entry): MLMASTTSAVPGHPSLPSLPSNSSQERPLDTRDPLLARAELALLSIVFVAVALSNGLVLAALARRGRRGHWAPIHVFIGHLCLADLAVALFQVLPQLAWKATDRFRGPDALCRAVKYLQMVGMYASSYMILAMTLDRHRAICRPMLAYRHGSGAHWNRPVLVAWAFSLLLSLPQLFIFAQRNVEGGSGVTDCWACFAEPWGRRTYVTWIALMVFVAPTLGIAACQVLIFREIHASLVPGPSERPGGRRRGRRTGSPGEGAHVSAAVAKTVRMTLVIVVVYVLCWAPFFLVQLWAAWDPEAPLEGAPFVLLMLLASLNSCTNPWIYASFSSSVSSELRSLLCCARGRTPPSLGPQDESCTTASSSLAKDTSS

In the case of NC(=O)CC[C@@H]1NC(=O)[C@H](Cc2ccccc2)NC(=O)[C@H](Cc2ccc(O)cc2)NC(=O)[C@@H](N)CSSC[C@@H](C(=O)N2CCC[C@H]2C(=O)N[C@@H](CCCN=C(N)N)C(=O)NCC(N)=O)NC(=O)[C@H](CC(N)=O)NC1=O [vasopressin, arginine-vasopressin], the half-life [1] is reported as 1 h and the “degradation in human serum” value [1] is reported as “fully degraded”.

In the case of “1-desamino-8-D-arginine-vasopressin [Desmopressin]”, the “activation (IP1 formation)” value [2] is reported as “inactive” and the “activation (IP1 formation)” value [3] is reported as “inactive”.

For [D-Arg8]-vasopressin, the Ki ([4]; read-out: binding affinity) is listed as 781 nM and the “difference in affinity of peptide pair vasopressin/[D-Arg8]-vasopressin” value [4] is listed as ~ 200 fold.

In the case of CC[C@H](C)[C@@H]1NC(=O)[C@H](CC(C)C)NC(=O)[C@@H](N)CSSC[C@@H](C(=O)N2CCC[C@H]2C(=O)N[C@@H](CCCNC(=N)N)C(=O)NCC(N)=O)NC(=O)[C@H](CC(N)=O)NC(=O)[C@H]([C@@H](C)O)NC1=O [inotocin] (H-CLITNCPRG-NH2; disulfide 1-6), the Ki [5] is reported as greater than 100000 nM, the Ki [6] is reported as 12 ± 6.5 nM and the EC50 [7, 13] is reported as greater than 100000 nM. For the same compound, the EC50 ([7]; IP1 response, human OTR, read-out: EC50) was greater than 10000 nM, the EC50 [8] was greater than 1500 nM and the EC50 [9] was 56 ± 9.7 nM. The Ki [10] was 11 ± 4.4 nM, the Ki [11] was 62 ± 37 nM and the EC50 [12, 13] was greater than 100000 nM. For the same compound, the EC50 ([12]; IP1 response, human V1aR, read-out: EC50) was greater than 10000 nM, the half-life [1] was 2.8 h and the “degradation in human serum” value [1] was “fully degraded”.
